Key:
Assay type in all cases: in vivo, human
Conditions in all cases: observed case
[1] = test system: IL-12 (p70); experiment: Biomarker study in RA subjects: serum IL-12, Luminex 18-Plex
Protocol: (§1) Double-blind, placebo-controlled add on study in subjects with moderately to severely active RA who have an inadequate response to MTX (oral or parenteral).
(§2) 595 subjects randomized to one of 6 dose regimens of Compound 1 (dosed as a [Compound 1:HCl:3H2O]) (3 dose levels administered either once or twice daily) or placebo on top of each subject's stable dose of MTX.
(§3) Compound 1 (dosed as a [Compound 1:HCl:3H2O]) is dosed for twelve weeks once daily (q.d.) (50 mg, 100 mg or 200 mg) or twice daily (b.i.d.) (25 mg, 50 mg or 100 mg); or placebo.
(§4) 18 parameters from human serum samples (GM-CSF, IFNγ, IL-1β, IL-2, IL-4, IL-5, IL-6, IL-7, IL-8, IL-10, IL-12 (p70), IL-13, IL-17A, IL-21, IL-23, MIP-1α, MIP-1β and TNF-α) are analyzed on a Luminex Plateform (BioPlex® L200) using a Luminex 18-Plex Kit (Millipore: HSTCMAG-28SK).
(§5) Coupled beads react with the sample containing the biomarker of interest. […] Phycoerythrin (PE) serves as a fluorescent indicator.
(§6) The concentration of bead bound analyte is proportional to the MFI (Median Fluorescent Intensity) and back-calculated from interpolation with the calibration curve fitted with a 4 or 5 parameters logistic (4PL or 5PL) regression model selected during method pre-validation.
(§7) Treatment effect was assessed using an ANCOVA model on the changes from baseline, with factors: treatment, baseline value of the PD marker, geographical region and previous use of biologics.

[2] = test system: IL-7; experiment: Biomarker study in RA subjects: serum IL-7, Luminex 18-Plex
Protocol: as §1, §2, §3, §4, §5, §6, §7

[3] = test system: IL-17A; experiment: Biomarker study in RA subjects: serum IL-17A, Luminex 18-Plex
Protocol: as §1, §2, §3, §4, §5, §6, §7

[4] = test system: IFNγ; experiment: Biomarker study in RA subjects: serum IFNγ, Luminex 18-Plex
Protocol: as §1, §2, §3, §4, §5, §6, §7

[5] = test system: IL-2; experiment: Biomarker study in RA subjects: serum IL-2, Luminex 18-Plex
Protocol: as §1, §2, §3, §4, §5, §6, §7

[6] = test system: IL-5; experiment: Biomarker study in RA subjects: serum IL-5, Luminex 18-Plex
Protocol: as §1, §2, §3, §4, §5, §6, §7

[7] = test system: MIP-1α; experiment: Biomarker study in RA subjects: serum MIP-1α, Luminex 18-Plex
Protocol: as §1, §2, §3, §4, §5, §6, §7

[8] = 50 mg bid, Week 4, N = 73, RA subjects on MTX
[9] = 50 mg bid, Week 12, N = 73, RA subjects on MTX
[10] = 100 mg bid, Week 4, N = 79, RA subjects on MTX
[11] = 100 mg bid, Week 12, N = 79, RA subjects on MTX
[12] = 100 mg qd, Week 4, N = 68, RA subjects on MTX
[13] = 100 mg qd, Week 12, N = 68, RA subjects on MTX
[14] = 200 mg qd, Week 4, N = 75, RA subjects on MTX
[15] = 200 mg qd, Week 12, N = 75, RA subjects on MTX

Q: How did the “IL-12 Mean change from baseline at Week 4” value [1, 8] turn out when `O=C(Nc1nc2cccc(-c3ccc(CN4CCS(=O)(=O)CC4)cc3)n2n1)C1CC1` [Compound 1, cyclopropanecarboxylic acid {5-[4-(1,1-dioxo-thiomorpholin-4-ylmethyl)-phenyl]-[1,2,4]triazolo[1,5-a]pyridin-2yl}-amide] was run?
A: -1.9 pg/mL

Q: And the “IL-12 Mean change from baseline at Week 12” value [1, 9]?
A: -2.3 pg/mL

Q: What about the “IL-12 Mean change from baseline at Week 4” value [1, 10] of the same molecule?
A: -2.3 pg/mL

Q: What about the “IL-12 Mean change from baseline at Week 12” value [1, 11] of the same molecule?
A: -3.9 pg/mL

Q: What about the “IL-12 Mean change from baseline at Week 4” value [1, 12] of the same molecule?
A: -0.2 pg/mL

Q: What about the “IL-12 Mean change from baseline at Week 12” value [1, 13] of the same molecule?
A: -1.2 pg/mL

Q: What about the “IL-12 Mean change from baseline at Week 4” value [1, 14] of the same molecule?
A: -1.7 pg/mL

Q: And the “IL-12 Mean change from baseline at Week 12” value [1, 15]?
A: 20.5 pg/mL

Q: What about the “IL-7 Mean change from baseline at Week 4” value [2, 8] of the same molecule?
A: -1.8 pg/mL

Q: What about the “IL-7 Mean change from baseline at Week 12” value [2, 9] of the same molecule?
A: -2.6 pg/mL

Q: And the “IL-7 Mean change from baseline at Week 4” value [2, 10]?
A: -2.7 pg/mL

Q: What about the “IL-7 Mean change from baseline at Week 12” value [2, 11] of the same molecule?
A: -3.0 pg/mL

Q: What about the “IL-7 Mean change from baseline at Week 4” value [2, 12] of the same molecule?
A: -0.4 pg/mL

Q: And the “IL-7 Mean change from baseline at Week 12” value [2, 13]?
A: -1.2 pg/mL

Q: And the “IL-7 Mean change from baseline at Week 4” value [2, 14]?
A: -2.5 pg/mL

Q: What about the “IL-7 Mean change from baseline at Week 12” value [2, 15] of the same molecule?
A: -3.3 pg/mL

Q: And the “IL-17α Mean change from baseline at Week 4” value [3, 8]?
A: -4.4 pg/mL

Q: And the “IL-17α Mean change from baseline at Week 12” value [3, 9]?
A: -3.3 pg/mL

Q: What about the “IL-17α Mean change from baseline at Week 4” value [3, 10] of the same molecule?
A: 3.9 pg/mL

Q: And the “IL-17α Mean change from baseline at Week 12” value [3, 11]?
A: -1.9 pg/mL

Q: What about the “IL-17α Mean change from baseline at Week 4” value [3, 12] of the same molecule?
A: -5.9 pg/mL

Q: And the “IL-17α Mean change from baseline at Week 12” value [3, 13]?
A: -7.4 pg/mL

Q: And the “IL-17α Mean change from baseline at Week 4” value [3, 14]?
A: -1.6 pg/mL

Q: And the “IL-17α Mean change from baseline at Week 12” value [3, 15]?
A: -0.9 pg/mL

Q: And the “IFNγ Mean change from baseline at Week 4” value [4, 8]?
A: 1.6 pg/mL

Q: What about the “IFNγ Mean change from baseline at Week 12” value [4, 9] of the same molecule?
A: -3.4 pg/mL

Q: And the “IFNγ Mean change from baseline at Week 4” value [4, 10]?
A: -3.3 pg/mL

Q: And the “IFNγ Mean change from baseline at Week 12” value [4, 11]?
A: -5.8 pg/mL

Q: What about the “IFNγ Mean change from baseline at Week 4” value [4, 12] of the same molecule?
A: -3.8 pg/mL

Q: What about the “IFNγ Mean change from baseline at Week 12” value [4, 13] of the same molecule?
A: -6.6 pg/mL

Q: And the “IFNγ Mean change from baseline at Week 4” value [4, 14]?
A: 0.5 pg/mL

Q: And the “IFNγ Mean change from baseline at Week 12” value [4, 15]?
A: -3.1 pg/mL

Q: And the “IL-2 Mean change from baseline at Week 4” value [5, 8]?
A: -0.2 pg/mL

Q: And the “IL-2 Mean change from baseline at Week 12” value [5, 9]?
A: -1.9 pg/mL

Q: What about the “IL-2 Mean change from baseline at Week 4” value [5, 10] of the same molecule?
A: -2.3 pg/mL

Q: What about the “IL-2 Mean change from baseline at Week 12” value [5, 11] of the same molecule?
A: -4.1 pg/mL

Q: And the “IL-2 Mean change from baseline at Week 4” value [5, 12]?
A: -1.9 pg/mL

Q: And the “IL-2 Mean change from baseline at Week 12” value [5, 13]?
A: -3.5 pg/mL

Q: And the “IL-2 Mean change from baseline at Week 4” value [5, 14]?
A: -2.0 pg/mL

Q: And the “IL-2 Mean change from baseline at Week 12” value [5, 15]?
A: -3.3 pg/mL

Q: What about the “IL-5 Mean change from baseline at Week 4” value [6, 8] of the same molecule?
A: -18.2 pg/mL

Q: And the “IL-5 Mean change from baseline at Week 12” value [6, 9]?
A: -18.1 pg/mL

Q: And the “IL-5 Mean change from baseline at Week 4” value [6, 10]?
A: -0.8 pg/mL

Q: And the “IL-5 Mean change from baseline at Week 12” value [6, 11]?
A: -1.5 pg/mL

Q: And the “IL-5 Mean change from baseline at Week 4” value [6, 12]?
A: -0.2 pg/mL

Q: What about the “IL-5 Mean change from baseline at Week 12” value [6, 13] of the same molecule?
A: -0.7 pg/mL

Q: What about the “IL-5 Mean change from baseline at Week 4” value [6, 14] of the same molecule?
A: 0.1 pg/mL

Q: And the “IL-5 Mean change from baseline at Week 12” value [6, 15]?
A: 0.0 pg/mL

Q: What about the “MIP-1α Mean change from baseline at Week 4” value [7, 8] of the same molecule?
A: 1.0 pg/mL

Q: What about the “MIP-1α Mean change from baseline at Week 12” value [7, 9] of the same molecule?
A: 8.5 pg/mL

Q: What about the “MIP-1α Mean change from baseline at Week 4” value [7, 10] of the same molecule?
A: -3.1 pg/mL

Q: What about the “MIP-1α Mean change from baseline at Week 12” value [7, 11] of the same molecule?
A: -5.2 pg/mL

Q: What about the “MIP-1α Mean change from baseline at Week 4” value [7, 12] of the same molecule?
A: 7.0 pg/mL

Q: And the “MIP-1α Mean change from baseline at Week 12” value [7, 13]?
A: 9.1 pg/mL

Q: What about the “MIP-1α Mean change from baseline at Week 4” value [7, 14] of the same molecule?
A: -1.6 pg/mL

Q: And the “MIP-1α Mean change from baseline at Week 12” value [7, 15]?
A: -2.6 pg/mL

— patent US20190314382A1, “COMPOUNDS AND PHARMACEUTICAL COMPOSITIONS THEREOF FOR THE TREATMENT OF INFLAMMATORY DISEASES” (Galapagos NV, priority 2016, published 2019)
